From patent US6025376A, “Chiral methylphenyloxazolidinones” (Schering Aktiengesellschaft, priority 1995, dated 2000)

Tests used:
[1] = system: phosphodiesterase type IV (PDE IV); test: Head-twitch test in rats (characteristic of PDE IV inhibitors); type: in vivo, male Wistar rats; conditions: observed 15-75 minutes after injection, MED = lowest dose with statistically significant effect
Protocol: (§1) The improved effectiveness of the new chiral methylphenyloxazolidinone derivatives in comparison with the racemate can be shown based on the head twitch and grooming reactions in rats that are characteristic of phosphodiesterase type IV (PDE IV) inhibitors. The racemate and the appropriate enantiomers were administered intraperitoneally (i.p.) to male Wistar rats and the occurrence of head twitches and grooming for 15-75 minutes after injection was detected by observation.
(§2) MED: Minimum effective dose, i.e., the lowest dose that ensures a statistically significant effect.

[2] = system: phosphodiesterase type IV (PDE IV); test: Grooming reaction in rats (characteristic of PDE IV inhibitors); type: in vivo, male Wistar rats; conditions: observed 15-75 minutes after injection, MED = lowest dose with statistically significant effect
Protocol: as §1, §2

[3] = biological target: 3H-Rolipram bond in brain homogenates; test: Displacement of radiolabeled Rolipram in brain homogenates; type: binding; conditions: calculated from IC50: Ki = IC50/[1+(L/KD)]
Protocol: The action of the enantiomers on the central nervous system was studied in vitro by examining their capacity to displace radiolabeled Rolipram in brain homogenates (Europ. Journ. of Pharmac. Vol. 127, 105-115 (1986)). The IC50 values (the concentration at which 50% inhibition action occurs) were converted to inhibition constant Ki, which is calculated according to the following formula: […]
in which L means the concentration of the radioactive tracer and KD means the dissociation constant of the ^3 H-Rolipram bond, which is determined separately.

TNF-α release = test: Inhibition of LPS-stimulated TNF-α release from macrophage cell line RAW 264 (Elisa); type: cell-based, murine; conditions: Mus musculus, RAW264.7, 30 min preincubation, LPS 10 ng/ml, 18 hours
Protocol: A murine macrophage cell line (RAW 264) was preincubated for 30 minutes in the presence and in the absence of various concentrations of PDE-IV inhibitors and then stimulated with LPS (10 ng/ml). 18 hours after stimulation, the culture medium was removed, and the TNF-α release was measured with a specific Elisa test. The test can be obtained from various companies, i.a., from the British biotechnology company Genzyme, and it is carried out as the manufacturer describes.

| SMILES | Ki [3] | Head-Twitch Test MED i.p. [1] | Grooming MED i.p. [2] | IC50 (TNF-α release) |
| --- | --- | --- | --- | --- |
| COc1ccc(C2(C)CNC(=O)O2)cc1OC1CCCC1 (racemic) [(R,S) - 1, (R,S)-5-(3-Cyclopentyloxy-4-methoxyphenyl)-5-methyl-2-oxazolidinone] | 0.57 nM | 1.56 mg/kg | 0.1 mg/kg |  |
| CCOc1cc(C2(C)CNC(=O)O2)ccc1OC (racemic) [Ethyl- Racemate, (R,S)-5-(3-Ethoxy-4-methoxyphenyl)-5-methyl-2-oxazolidinone] | 0.68 nM |  |  |  |
| COc1ccc([C@]2(C)CNC(=O)O2)cc1OC1CCCC1 [(R) - (-) - 1, (R)-(-)-5-(3-Cyclopentyloxy-4-methoxyphenyl)-5-methyl-2-oxazolidinone] | 0.34 nM | 0.39 mg/kg | 0.1 mg/kg |  |
| COc1ccc([C@@]2(C)CNC(=O)O2)cc1OC1CCCC1 [(S) - (+) - 1, (S)-(+)-5-(3-Cyclopentyloxy-4-methoxyphenyl)-5-methyl-2-oxazolidinone] | 3 nM | 6.25 mg/kg | 6.25 mg/kg |  |
| CCOc1cc([C@]2(C)CNC(=O)O2)ccc1OC [Ethyl- (R)-(-)-Isomer, (R)-(-)-5-(3-Ethoxy-4-methoxyphenyl)-5-methyl-2-oxazolidinone] | 0.33 nM |  |  |  |

Further lines, with some results ahead:

| Ki [3] | SMILES | Head-Twitch Test MED i.p. [1] | Grooming MED i.p. [2] | IC50 (TNF-α release) |
| --- | --- | --- | --- | --- |
| 0.61 nM | CCCOc1cc(C2(C)CNC(=O)O2)ccc1OC (racemic) [(RS) - 2, (R,S)-5-(4-Methoxy-3-propoxyphenyl)-5-methyl-2-oxazolidinone] |  |  | 500 nM |
| 0.24 nM | CCCOc1cc([C@]2(C)CNC(=O)O2)ccc1OC [(R) - (-) - 2, (R)-(-)-5-(4-Methoxy-3-propoxyphenyl)-5-methyl-2-oxazolidinone] |  |  | 250 nM |
| 16 nM | CCCOc1cc([C@@]2(C)CNC(=O)O2)ccc1OC [(S) - (+) - 2, (S)-(+)-5-(4-Methoxy-3-propoxyphenyl)-5-methyl-2-oxazolidinone] |  |  | 2500 nM |
| 20 nM | CCOc1cc([C@@]2(C)CNC(=O)O2)ccc1OC [Ethyl- (S)-(+)-Isomer, (S)-(+)-5-(3-Ethoxy-4-methoxyphenyl)-5-methyl-2-oxazolidinone] |  |  |  |
